In US12447171B2 (CELGENE QUANTICEL RESEARCH, INC., priority 2019, dated 2025):

How the values were obtained:
Assay type in all cases: cell-based
[1] = system: BaF-FLT3(WT); assay: Cell viability assay (Cell Titer-Glo), BaF3 cells expressing FLT3; details: Mus musculus
[2] = system: BaF-FLT3(D835Y); assay: as above; details: Mus musculus
[3] = system: MCL-1; assay: Western blot of MCL-1 in AML cell lines
Experimental: Lysates were quantified using a bicinchoninic acid (BCA) kit (Piece/Thermo Fisher, Waltham, MA). 20 to 30 μg protein was resolved on a 4-12% SDS-PAGE gel, transferred to PVDF membranes (80V/90 minute by wet-transfer), and blocked with Oddysey TBS blocking buffer for 1 hour and then probed with appropriate primary antibodies overnight at 4° C. using dilution as recommended by manufacturer. Membranes were washed three times for a total of 30 minutes and then incubated with secondary antibodies at room temperature in the dark for 1 hour. After another three washes, Odyssey infrared imaging system and companion software (LI-COR biosciences, Lincoln, NE, USA) were used to scan immunoblot membranes and to quantify band intensity according to the manufacturer's instructions. The ratio of proteins of interest to loading control in treated samples was normalized to the corresponding ratio in untreated cells. Antibodies used for immunoblotting were purchased from the following sources: BCL-2 (sc-7382), MCL1- (sc-819) from Santa Cruz Biotechnology (Dallas, TX, USA, Bim (2819), caspase-3 (9664) from Cell Signaling Technology; beta-Actin (A2228) from Sigma-Aldrich; DNMTI (ab188453) from AbCam; TRDye 680 goat anti-rabbit and IRDye 800 goat anti-mouse secondary antibodies (#925-68073 and #925-32212) were purchased from Li-COR Biosciences (Lincoln, NE).

[4] = system: MV4-11 cells; assay: RNASeq analysis of MV4-11 cells; details: MV4-11, 1 μM 5-azacytidine
Experimental: (§1) After treatment, cells were recovered, washed once in PBS, and flash frozen as cell pellets. Cell pellets were sent to Canopy Biosciences for RNA extraction and library preparation and sequencing. RNA was extracted using the Qiagen RNeasy Mini Kit according to manufacturer's instructions. A modified protocol was used to preserve miRNA species. Total RNA Seq libraries were prepared using 200 ng of total RNA and the NEBNext Ultra II Directional Library prep kit. rRNA depletion was performed using an RNase-H based method (New England Biolabs, Ipswich, MA). MCL1 RNA levels in other cell lines were quantified by RNASeq using standard methods.
Libraries were multiplexed and sequenced using Illumina HiSeq. All gene counts were then imported into the R/Bioconductor package EdgeR and TMM normalization size factors were calculated to adjust for samples for differences in library size. Ribosomal genes and genes not expressed in the smallest group size minus one samples greater than one count-per-million were excluded from further analysis. Differential expression analysis was then performed to analyze for differences between conditions and the results were filtered for only those genes with Benjamini-Hochberg false-discovery rate adjusted p-values less than or equal to 0.05. Global perturbations in known Gene Ontology (GO) terms and KEGG pathways were detected using the R/Bioconductor package GAGE to test for changes in expression of the reported log 2 fold-changes reported by Limma in each term versus the background log 2 fold-changes of all genes found outside the respective term. The R/Bioconductor package heatmap and Pathview was used to display heatmaps or annotated KEGG graphs across groups of samples for each GO term or KEGG pathway (respectively) with a Benjamini-Hochberg false-discovery rate adjusted p-value less than or equal to 0.05. To find differentially expressed genes, the raw counts were variance stabilized with the R/Bioconductor package DESeq2.

[5] = system: activating transcription factor 3 (ATF3); assay: ATF3 expression (RNAseq, real-time PCR) in MV4-11 cells
Experimental: as §1
Libraries were multiplexed and sequenced using Illumina HiSeq. All gene counts were then imported into the R/Bioconductor package EdgeR and TMM normalization size factors were calculated to adjust for samples for differences in library size. Ribosomal genes and genes not expressed in the smallest group size minus one samples greater than one count-per-million were excluded from further analysis. […] Global perturbations in known Gene Ontology (GO) terms and KEGG pathways were detected using the R/Bioconductor package GAGE to test for changes in expression of the reported log 2 fold-changes reported by Limma in each term versus the background log 2 fold-changes of all genes found outside the respective term. […]

## Nc1ncn([C@@H]2O[C@H](CO)[C@@H](O)[C@H]2O)c(=O)n1 [5-azacytidine, 4-amino-1-B-D-ribofuranosyl-1,3,5-triazin-2(1H)-one]
[1]
  EC50: 189 nM
[2]
  EC50: 456 nM
[3]; KG1α
  start of MCL-1 degradation after treatment: 6 h
[3]; MV4-11
  start of MCL-1 degradation after treatment: 6 h
[3]; OCI-AML2
  MCL-1 degradation: did not lead to any degradation of MCL-1
[3]; THP-1
  start of MCL-1 degradation after treatment: 16 h
[3]; THP-1, by 24 hours
  extent of MCL-1 degradation: incomplete degradation by 24 hours
[4]; 24 h
  Mean logFC, Kegg pathway Antigen processing and presentation: −3.39
  Mean logFC, Kegg pathway Biosynthesis of unsaturated fatty acids: −3.26
  Mean logFC, Kegg pathway Carbon metabolism: −3.35
  Mean logFC, Kegg pathway Cardiac muscle contraction: −2.61
  Mean logFC, Kegg pathway Cell cycle: −5.75
  Mean logFC, Kegg pathway Cellular senescence: −2.69
  Mean logFC, Kegg pathway DNA replication: −4.45
  Mean logFC, Kegg pathway Fatty acid elongation: −2.87
  Mean logFC, Kegg pathway Fatty acid metabolism: −3.43
  Mean logFC, Kegg pathway Lysasome: −2.82
  Mean logFC, Kegg pathway Metabolic pathways: −5.79
  Mean logFC, Kegg pathway Mismatch repair: −2.98
  Mean logFC, Kegg pathway Necroptosis: −3.78
  Mean logFC, Kegg pathway Oxidative phosphorylation: −7.32
  Mean logFC, Kegg pathway Phagosome: −4.13
  Mean logFC, Kegg pathway Proteasome: −4.41
  Mean logFC, Kegg pathway Protein export: −3.19
  Mean logFC, Kegg pathway Protein processing in endoplasmic reticulation: −4.96
  Mean logFC, Kegg pathway RNA transport: −3.08
  Mean logFC, Kegg pathway Regulation of actin cytoskeleton: −2.46
  Mean logFC, Kegg pathway Ribosome: −10.50
  Mean logFC, Kegg pathway Spliceasome: −4.10
  Mean logFC, Kegg pathway Taste transduction: −2.44
  Mean logFC, Kegg pathway Terpenoid backbone biosynthesis: −2.48
  Mean logFC, Kegg pathway p53 signaling pathway: −2.42
[4]; 24 hours
  differentially expressed genes: 133
[4]; 48 hours
  KEGG pathways regulated: No significant differences
  differentially expressed genes: 226
[5]; MV4-11, 0.3 μM 5-azacytidine, 24 or 48 hours
  ATF3 expression (real-time PCR): not sufficient to induce ATF3 expression
[5]; RNAseq, MV4-11, 1 μM, 48 hours
  ATF3 expression increase: two-fold
